Here are results for 18 molecules from ChEMBL document CHEMBL1132518, “Symmetrical anhydride-type serine protease inhibitors: structure-activity relationship studies of human chymase inhibitors” (Bioorg Med Chem Lett, 1999).

As a reminder, the IC50 is the concentration that gives 50% inhibition.

A value given as a limit tells only on which side of the number the result lay.

In one assay the target is T1, Chymase (Homo sapiens, UniProt P23946).
T1 sequence (P23946 whole entry): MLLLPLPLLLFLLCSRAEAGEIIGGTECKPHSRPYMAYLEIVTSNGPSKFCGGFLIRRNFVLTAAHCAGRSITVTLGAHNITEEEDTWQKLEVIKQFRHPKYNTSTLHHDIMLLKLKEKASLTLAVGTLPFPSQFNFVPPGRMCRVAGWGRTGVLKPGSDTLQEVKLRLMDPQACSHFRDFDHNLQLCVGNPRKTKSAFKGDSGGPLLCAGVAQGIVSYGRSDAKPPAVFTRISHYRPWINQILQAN
Kind of assay: Inhibitory activity against human chymase (h-chymase).
In turn, `CC(C)(C(=O)OC(=O)C(C)(C)C(CCc1ccccc1)NC(=O)c1ccc(C#N)cc1)C(CCc1ccccc1)NC(=O)c1ccc(C#N)cc1` (stereo unspecified) registered a concentration for half-maximal inhibition (IC50) of 0.27 µM.
Regarding `CCCC(NC(=O)c1ccccc1)C(C)(C)C(=O)OC(=O)C(C)(C)C(CCC)NC(=O)c1ccccc1` (stereo unspecified), 0.058 µM corresponded to half-maximal inhibition (IC50).
On the same count and under the same terms, then `O=C(CC(CCc1ccccc1)NC(=O)c1ccccc1)OC(=O)CC(CCc1ccccc1)NC(=O)c1ccccc1` (stereo unspecified), with over 1000 µM.
As for `CCCCCC(NC(=O)CCC)C(C)(C)C(=O)OC(=O)C(C)(C)C(CCCCC)NC(=O)CCC` (stereo unspecified), the IC50 was determined as 29 µM.
Regarding `CC(C)(C(=O)OC(=O)C(C)(C)C(NC(=O)c1ccc(C#N)cc1)C1CC=CCC1)C(NC(=O)c1ccc(C#N)cc1)C1CC=CCC1` (stereo unspecified), the 50% inhibitory concentration (IC50) came to 0.13 µM.
Still for that read-out and setting: then `CCC(NC(=O)c1ccccc1)C(C)(C)C(=O)OC(=O)C(C)(C)C(CC)NC(=O)c1ccccc1` (stereo unspecified), with 0.037 µM; and `CC(C)(CNC(=O)c1ccccc1)C(=O)OC(=O)C(C)(C)CNC(=O)c1ccccc1`, with 3 µM.
In the case of `O=C(CCNC(=O)c1ccccc1)OC(=O)CCNC(=O)c1ccccc1`, half-maximal inhibition (IC50) required 40 µM.
Molecule `CC(C)(C(=O)OC(=O)C(C)(C)C(NC(=O)c1ccc(C#N)cc1)c1ccccc1)C(NC(=O)c1ccc(C#N)cc1)c1ccccc1` (stereo unspecified) showed a 50% inhibitory concentration (IC50) of 13 µM.
The same measure, in the same setting: then `CCCCCCC(NC(=O)c1ccccc1)C(C)(C)C(=O)OC(=O)C(C)(C)C(CCCCCC)NC(=O)c1ccccc1` (stereo unspecified), with 0.032 µM; and `CCCCC(NC(=O)c1ccccc1)C(C)(C)C(=O)OC(=O)C(C)(C)C(CCCC)NC(=O)c1ccccc1` (stereo unspecified), with 0.005 µM.
Same read-out and setting: then `Cc1ccccc1C(NC(=O)c1ccc(C#N)cc1)C(C)(C)C(=O)OC(=O)C(C)(C)C(NC(=O)c1ccc(C#N)cc1)c1ccccc1C` (stereo unspecified), with 8.7 µM; and `CC(C)(C(=O)OC(=O)C(C)(C)C(NC(=O)c1ccc(C#N)cc1)c1ccccc1Cl)C(NC(=O)c1ccc(C#N)cc1)c1ccccc1Cl` (stereo unspecified), with 47 µM.
In the case of `CCCCCC(NC(=O)c1ccccc1)C(C)(C)C(=O)OC(=O)C(C)(C)C(CCCCC)NC(=O)c1ccccc1` (stereo unspecified), it took 0.013 µM to reach half-maximal inhibition (IC50).
Same read-out and setting: then `CC(C)(C(=O)OC(=O)C(C)(C)C(CCc1ccccc1)NC(=O)c1ccccc1)C(CCc1ccccc1)NC(=O)c1ccccc1` (single isomer, unassigned; (+)), with 0.091 µM.
`CCCC(=O)NC(CCc1ccccc1)C(C)(C)C(=O)OC(=O)C(C)(C)C(CCc1ccccc1)NC(=O)CCC` (stereo in doubt; 9 (-)) returned an IC50 of 0.0056 µM.
On the same count and under the same terms, then `CC(C)(C(=O)OC(=O)C(C)(C)C(CCc1ccccc1)NC(=O)c1ccccc1)C(CCc1ccccc1)NC(=O)c1ccccc1` (stereo in doubt; 9), with 0.02 µM.
Same read-out and setting: the same measure for `CCCC(=O)NC(CCc1ccccc1)C(C)(C)C(=O)OC(=O)C(C)(C)C(CCc1ccccc1)NC(=O)CCC` (stereo in doubt; 15): 2.6 µM.

A further assay deals with T2, Cathepsin G (Homo sapiens, UniProt P08311).
T2 sequence (P08311 whole entry): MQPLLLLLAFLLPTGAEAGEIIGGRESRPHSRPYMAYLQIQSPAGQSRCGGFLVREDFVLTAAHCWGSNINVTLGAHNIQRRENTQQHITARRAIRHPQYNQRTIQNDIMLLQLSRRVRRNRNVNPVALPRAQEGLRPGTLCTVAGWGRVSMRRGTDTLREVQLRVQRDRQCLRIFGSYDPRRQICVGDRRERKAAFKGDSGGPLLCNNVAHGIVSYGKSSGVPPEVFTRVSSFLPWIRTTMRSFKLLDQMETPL
Nature of the assay: Inhibitory activity against human leukocyte cathepsin G (h-CG).
In the case of `CCCCCC(NC(=O)CCC)C(C)(C)C(=O)OC(=O)C(C)(C)C(CCCCC)NC(=O)CCC` (stereo unspecified), the IC50 was 1.6 µM.
The same measure, in the same setting: the same measure for `CC(C)(C(=O)OC(=O)C(C)(C)C(NC(=O)c1ccc(C#N)cc1)C1CC=CCC1)C(NC(=O)c1ccc(C#N)cc1)C1CC=CCC1` (stereo unspecified): 0.069 µM.
The same measure, in the same setting: the same measure for `O=C(CCNC(=O)c1ccccc1)OC(=O)CCNC(=O)c1ccccc1`: 3.1 µM.
